Key:
[1] = tested on: murine bone marrow derived macrophages (BMDMs); assay: BMDM migration assay (Transwell, UDP as chemoattractant); format: cell-based; settings: 10 μM MRS2578, 100 μM UDP in bottom chamber, 6 h, FIG. 4
Method: In the macrophage migration assays, 1×10^5 murine BMDMs were seeded on […] polycarbonate membranes (Transwell; Costar) with or without 10 μM MRS2578. The bottom chambers contained DMEM with or without 100 μM UDP, 100 μM Uridine (Sigma-Aldrich) or 100 μM Cytidine (Sigma-Aldrich), or alternatively, conditioned media from NT or CDA KD cells.
After 6 h incubation, the cells were removed from the top of each membrane with a cotton stick and migrated cells were fixed in 4% PFA, washed in PBS, stained with crystal violet (2.5 g/L) and Hoechst, and mounted on glass slides with ProLong Gold mounting medium without DAPI. Images were acquired with Olympus BX41 microscope and CellSense imaging software.

Panc02 tumors = assay: Subcutaneously implanted Panc02 tumor model, with FACS analysis of tumors; format: in vivo, mice
Method: 4×10^6 Panc02 cells were injected subcutaneously (s.c.) in the right flank of the mouse in a final suspension of 200 μI PBS. Tumor volumes were measured at least three times per week with a calliper and calculated using the formula: Volume (mm^3): ((Width(mm))^2×Length(mm))/2. 0.1×10^6 KPC1245 cells were injected orthotopically into the head of the pancreas in 20 μl of PBS.
(§1) Mice were randomized and treated, at indicated time points, intraperitoneally (i.p.) with 10 mg/kg of α-PD-1 (BioXcell) or control IgG from rat serum (Sigma-Aldrich), 3 mg/kg/day MRS2578 (Selleck Chemicals) or control vehicle. At the end stage, tumor weight was measured.
(§2) Mice were monitored and weighed continuously during the experiments. Mice showing symptoms of illness, that lost 20% of initial body weight, peritoneal leakage or with ulcerated tumors were sacrificed and excluded from the experiments. At the end stage, tumor weight was registered and samples were collected for histological examination, metabolomics and/or FACS/sorter analysis.
Tumor-bearing mice were sacrificed by cervical dislocation and perfused with saline to remove circulating immune cells. Tumors were harvested and minced in αMEM medium (Lonza) supplemented with 5% FBS, 1% Pen/Strep, 50 μM β-mercaptoethanol (Gibco), 5U/mL DNase I (Qiagen), 0.85 mg/mL Collagenase V (Collagenase from Clostridium histolyticum, Sigma-Aldrich), 1.25 mg/mL Collagenase D (Collagenase from Clostridium histolyticum, Roche) and 1 mg/mL Dispase II (Gibco) and incubated for 30 minutes at 37° C. The digested tissue was filtered using a 70 μm pore sized mesh strainer and cells were centrifuged 5 minutes at 300 xg. The samples were resuspended in Red Blood Cell Lysing Buffer Hybri-Max™ (Sigma-Aldrich) for 30 seconds, inactivated with FACS buffer (PBS containing 2% FBS and 2 mM EDTA) and centrifuged. The cell pellets were resuspended in FACS buffer and filtered with a 40 μm pore sized mesh strainer. Cells were resuspended in FACS buffer and for the intracellular measurement of interferon γ (IFN-γ) and granzyme B (GZMB), single-cell suspensions were culture in RPMI medium supplemented with 10% FBS, 1% glutamine, 1% Pen/Strep and stimulated with phorbol 12-myristate 13-acetate (PMA)/ionomycin Cell Stimulation Cocktail (eBioscience™, 1:500) in the presence of Brefeldin A (BioLegend®, 1:1000) or Monensin (eBioscience™, 1:1000) for 4 h at 37° C. Cells were then incubated for 15 minutes at 4° C. with Mouse BD Fc Block purified Rat Anti-Mouse CD16/CD32 mAb (BD Pharmingen™) and stained with the following antibodies for 30 minutes at 4° C.: Fixable viability dye (eFluor™ 506, eBioscience™), anti-CD45 (30-F11, APC-Cy7 or FITC, BioLegend®), anti-CD11b (M1/70, PerCP-Cy5.5, BioLegend®; eFluor™ 450, eBioscience™; or PE, BD Biosciences), anti-TCR-13 chain (H57-597, BV421, BD Biosciences), anti-CD4 (RM4-5, PE, BioLegend®), anti-CD8 (53-6.7, PE-Cy7, eBioscience™ or 53-6.7, APC-Cy7, BioLegend®), anti-CD69 (H1.2F3, APC, eBioscience™), anti-F4/80 (BM8, Alexa Fluor 488, eBioscience™; PerCP-Cy5.5, BioLegend®; or BV421, BioLegend®), anti-IFN-γ (XMG1.2, PE-Cy7, eBioscience™), anti-GZMB (GB11, Alexa Fluor 647, BioLegend®), anti-MHC-II (M5/114.15.2, APC, eBioscience™; or PerCP-eFluor 710, eBioscience™), anti-CD11c (N418, PE-Cy7, eBioscience™), anti-CD206 (MR5D3, Alexa Fluor 647, Bio-Rad), anti-Ly-6G (1A8, PE, BD Pharmingen™) anti-CD335 (NKp46) (29A1.4, APC, BioLegend®), anti-Foxp3 (FJK-16s, APC, eBioscience™) and anti-CD25 (PC61.5, PE-Cy7, eBioscience™). Cells were subsequently washed and resuspended in cold FACS buffer before FACS analysis or flow sorting by a FACS Verse or FACS Aria (BD Biosciences), respectively.

[2] = Tolerability / body weight of treated Panc02 tumor-bearing mice; format: in vivo; settings: MRS2578 3 mg/kg/day i.p.; FIG. 7
Method: as §1, §2

[3] = Panc02 tumors, MRS2578 vs vehicle, FIG. 6

S=C=Nc1cccc(NC(=S)NCCCCNC(=S)Nc2cccc(N=C=S)c2)c1 [MRS2578, N,N-1,4-butanediylbis-N-(3-isothiocyanatophenyl) thiourea]
Migration of BMDMs towards UDP [1]: abrogated | Migration of BMDMs towards UDP ([1]; listed as MRS 2578): specifically inhibited | Tumor volume (Panc02 tumors; MRS2578 3 mg/kg/day i.p. combined to α-PD-1 therapy (10 mg/kg i.p.), sc Panc02, FIG. 5): decrease | Tumor weight (Panc02 tumors; MRS2578 3 mg/kg/day i.p. combined to α-PD-1 therapy (10 mg/kg i.p.), sc Panc02, end stage, FIG. 5): decrease | Infiltration of M2 polarized TAMs into Panc02 tumors (Panc02 tumors; Panc02 tumors, MRS2578): reduced infiltration | Infiltration of tumor-associated macrophages (TAMs) into Panc02 tumors (Panc02 tumors; Panc02 tumors, MRS2578): Reduced infiltration | Activation of CD8+ T cells in the tumors (GZMB, FACS) (Panc02 tumors; [3]): more activated | M2 polarization of macrophages (CD206 expression by FACS) (Panc02 tumors; [3]): reduction of M2 polarization | Harmful effect on mice (evolution of body weight) [2]: no harmful effect

Source: patent publication US20230364049A1, “COMBINATION OF P2Y6 INHIBITORS AND IMMUNE CHECKPOINT INHIBITORS” (VIB VZW, priority 2020, published 2023)
